Assay results from patent US20140142150A1, “TREATING NEUROPSYCHIATRIC DISORDERS” (THE GENERAL HOSPITAL CORPORATION, priority 2011, published 2014).

Test system: stable schizophrenia patients
Test: placebo controlled add-on trial of once-weekly D-cycloserine, negative symptoms by modified SANS total score
Type: in vivo, human
Procedure: Study procedures were approved by the Partners HealthCare and Massachusetts Department of Mental Health institutional review boards, and all participants provided written informed consent. A diagnosis of schizophrenia was confirmed by a consensus diagnostic conference based on results from a clinical diagnostic interview, chart review, and review of clinical history with treating physicians.
Subjects were administered the Positive and Negative Syndrome Scale (PANSS) (Kay et al., Schizophrenia Bulletin 13:261-276) to assess symptom severity by trained raters who were blind to genotype.
DNA was obtained from blood samples and genotyped for variants across two genes: G72 and GCPII. Specific variants were selected on the basis of (1) common occurrence in the general population (minor allele frequency >0.2), (2) coding for non-synonymous mutations in amino acid sequences, and (3) previous support in the literature for an association with schizophrenia. No additional genetic variants were studied. Genotyping was conducted using the MASSARRAY® platform (Sequenom, San Diego, Calif.) using the nucleotide primers shown in Table 2.
Negative symptoms were measured by the modified SANS total score at baseline and at week 8, seven days after the last dose of study drug. […] The sample was subsequently enlarged to 45 subjects and G72 genotype was examined as a predictor of response. G72 is the most-validated schizophrenia risk gene that influences activity at the glycine site of the NMDA receptor complex. One G72 SNP, rs3916971 (M21), that achieved significant association with schizophrenia risk in a meta-analysis performed by “SzGene” (Bertram, Schizophr Bull. 34:806-12, 2008) was examined. In the enlarged sample of 45 subjects, the effect size of D-cycloserine improvement of negative symptoms compared to placebo increased to 0.9 and G72 genotype produced a drug x genotype effect size of 0.7. Within subjects receiving D-cycloserine, G72 genotype predicted response with an effect size of 0.9 and within subjects with the TT genotype, the effect size of D-cycloserine improvement of negative symptoms vs. placebo was 2.3 (FIG. 1).

## N[C@@H]1CONC1=O [D-cycloserine]
Enlarged sample of 45 subjects
  drug x genotype effect size (G72 rs3916971 genotype): 0.7
Enlarged sample of 45 subjects, once-weekly 50 mg
  effect size of improvement of negative symptoms compared to placebo: 0.9
once-weekly 50 mg add-on to antipsychotics, 38 stable schizophrenia patients, baseline to week 8, vs placebo
  improvement of negative symptoms (modified SANS total score), effect size: 0.7
once-weekly 50 mg, 38 patients, week 8 (placebo group 11%)
  patients exhibiting a 20% or greater improvement in SANS total score: 30%
Within subjects receiving D-cycloserine, enlarged sample
  G72 genotype prediction of response, effect size: 0.9
Within subjects with the TT genotype at G72 rs3916971 (FIG. 1)
  effect size of improvement of negative symptoms vs. placebo: 2.3
